Molecular target: T1, rat metabotropic glutamate receptor 5 (mGluR5) (Rattus norvegicus, UniProt P31424)
T1 construct: expressed in transfected cells; host or cells: HEK 293
Experiment: Calcium mobilization assay (FLIPR) for negative or positive allosteric activity, HEK 293 cells
Format: cell-based
Details: HEK293, negative allosteric modulation, inhibition of EC80 glutamate response; read-out: FLIPR maximum inhibition
Summary of the method: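 HEK 293 cells stably expressing rat mGluR5, Fluo-4 loaded in HEPES-buffered HBSS pH 7.4 with 0.1% BSA and probenecid. Compound added with EC20 (potentiation) or EC80 (inhibition) glutamate; fluorescence read over 3 min at room temperature. Basal-subtracted maximum fluorescence change fitted to Hill equation.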

T1 sequence (P31424 21-1171 isoform P31424-2 limits assumed): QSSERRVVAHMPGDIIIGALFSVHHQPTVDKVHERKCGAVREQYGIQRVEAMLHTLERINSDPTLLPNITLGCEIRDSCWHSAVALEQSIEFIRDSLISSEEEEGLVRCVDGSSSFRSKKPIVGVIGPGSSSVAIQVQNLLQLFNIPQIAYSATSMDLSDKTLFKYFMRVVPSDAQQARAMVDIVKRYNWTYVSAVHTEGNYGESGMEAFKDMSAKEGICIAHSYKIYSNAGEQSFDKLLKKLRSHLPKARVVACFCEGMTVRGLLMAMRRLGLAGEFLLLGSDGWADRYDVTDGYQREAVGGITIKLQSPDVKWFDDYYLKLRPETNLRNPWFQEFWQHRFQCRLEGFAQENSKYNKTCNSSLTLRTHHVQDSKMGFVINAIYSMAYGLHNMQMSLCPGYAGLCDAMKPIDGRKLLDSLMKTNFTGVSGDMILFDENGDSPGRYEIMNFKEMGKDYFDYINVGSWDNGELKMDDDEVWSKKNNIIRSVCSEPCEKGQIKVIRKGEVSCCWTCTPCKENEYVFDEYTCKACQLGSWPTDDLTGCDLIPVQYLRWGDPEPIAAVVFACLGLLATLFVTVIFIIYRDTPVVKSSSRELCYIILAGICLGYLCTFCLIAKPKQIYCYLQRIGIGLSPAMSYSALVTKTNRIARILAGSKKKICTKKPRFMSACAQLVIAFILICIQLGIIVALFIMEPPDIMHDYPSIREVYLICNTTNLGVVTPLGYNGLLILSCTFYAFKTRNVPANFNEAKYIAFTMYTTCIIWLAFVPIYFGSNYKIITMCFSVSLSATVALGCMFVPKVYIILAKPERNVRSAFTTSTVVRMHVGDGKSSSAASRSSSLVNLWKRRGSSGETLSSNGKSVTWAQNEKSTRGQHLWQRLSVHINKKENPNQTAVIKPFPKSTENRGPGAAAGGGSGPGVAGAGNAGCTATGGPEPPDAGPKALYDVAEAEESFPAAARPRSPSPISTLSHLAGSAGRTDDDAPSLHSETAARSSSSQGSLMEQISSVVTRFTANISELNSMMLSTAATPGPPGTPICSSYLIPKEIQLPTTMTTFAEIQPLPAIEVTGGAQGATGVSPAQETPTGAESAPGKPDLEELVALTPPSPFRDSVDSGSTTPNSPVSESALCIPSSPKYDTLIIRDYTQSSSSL

SMILES	Emax [%]
Cc1cccc(C(=O)NC23CC4CC(C2)CC(NC(=O)c2csc(C)n2)(C4)C3)n1 [Example 136, 6-Methyl-pyridine-2-carboxylic acid {3-[(2-methyl-thiazole-4-carbonyl)-amino]-adamantan-1-yl}-amide]	70 to 99
Cc1cccc(C(=O)NC23CC4CC(CC(NC(=O)c5ccc(F)cn5)(C4)C2)C3)n1 [Example 137, 5-Fluoro-pyridine-2-carboxylic acid {3-[(6-methyl-pyridine-2-carbonyl)-amino]-adamantan-1-yl}-amide]	70 to 99
Cc1cccc(C(=O)NC23CC4CC(CC(NC(=O)c5cc(Br)ccn5)(C4)C2)C3)n1 [Example 138, 6-Methyl-pyridine-2-carboxylic acid {3-[(4-bromo-pyridine-2-carbonyl)-amino]-adamantan-1-yl}-amide]	70 to 99
COC(=O)c1cccc(C(=O)NC23CC4CC(CC(NC(=O)c5cccc(C)n5)(C4)C2)C3)n1 [Example 139, 6-{3-[(6-Methyl-pyridine-2-carbonyl)-amino]-adamantan-1-ylcarbamoyl}-pyridine-2-carboxylic acid methyl ester]	70 to 99
Cc1cccc(C(=O)NC23CC4CC(C2)CC(NC(=O)c2ccnc(C(F)(F)F)n2)(C4)C3)n1 [Example 140, 2-Trifluoromethyl-pyrimidine-4-carboxylic acid {3-[(6-methyl-pyridine-2-carbonyl)-amino]-adamantan-1-yl}-amide]	70 to 99
Cc1cccc(C(=O)NC23CC4CC(C2)CC(NC(=O)c2nccc(C)n2)(C4)C3)n1 [Example 141, 4-Methyl-pyrimidine-2-carboxylic acid {3-[(6-methyl-pyridine-2-carbonyl)-amino]-adamantan-1-yl}-amide]	70 to 99
CC(=O)c1cccc(C(=O)NC23CC4CC(CC(NC(=O)c5cccc(C)n5)(C4)C2)C3)n1 [Example 142, 6-Methyl-pyridine-2-carboxylic acid {3-[(6-acetyl-pyridine-2-carbonyl)-amino]-adamantan-1-yl}-amide]	70 to 99
Cc1cccc(C(=O)NC23CC4CC(C2)CC(NC(=O)c2cccc(C(C)O)n2)(C4)C3)n1 (centres unmarked) [Example 143, 6-Methyl-pyridine-2-carboxylic acid {3-[(6-(1-hydroxy-ethyl)-pyridine-2-carbonyl)-amino]-adamantan-1-yl}-amide]	70 to 99
Cc1cccc(C(=O)NC23CC4CC(C2)CC(NC(=O)c2cccc(C(C)(C)O)n2)(C4)C3)n1 [Example 144, 6-Methyl-pyridine-2-carboxylic acid (3-{[6-(1-hydroxy-1-methyl-ethyl)-pyridine-2-carbonyl]-amino}-adamantan-1-yl)-amide]	70 to 99
COc1cccc(C(=O)NC23CC4CC(C2)CC(NC(=O)c2cncc(C)n2)(C4)C3)c1 [Example 146, 6-Methyl-pyrazine-2-carboxylic acid [3-(3-methoxy-benzoylamino)-adamantan-1-yl]-amide]	70 to 99
CCOc1cccc(C(=O)NC23CC4CC(C2)CC(NC(=O)c2cncc(C)n2)(C4)C3)c1 [Example 147, 6-Methyl-pyrazine-2-carboxylic acid [3-(3-ethoxy-benzoylamino)-adamantan-1-yl]-amide]	70 to 99
Cc1cncc(C(=O)NC23CC4CC(C2)CC(NC(=O)c2cc(F)ccc2F)(C4)C3)n1 [Example 148, 6-Methyl-pyrazine-2-carboxylic acid [3-(2,5-difluoro-benzoylamino)-adamantan-1-yl]-amide]	70 to 99
Cc1cncc(C(=O)NC23CC4CC(CC(NC(=O)c5ccc(F)c(Cl)c5)(C4)C2)C3)n1 [Example 149, 6-Methyl-pyrazine-2-carboxylic acid [3-(3-chloro-4-fluoro-benzoylamino)-adamantan-1-yl]-amide]	70 to 99
Cc1cncc(C(=O)NC23CC4CC(C2)CC(NC(=O)c2cccc(C(F)(F)F)c2F)(C4)C3)n1 [Example 150, 6-Methyl-pyrazine-2-carboxylic acid [3-(2-fluoro-3-trifluoromethyl-benzoylamino)-adamantan-1-yl]-amide]	70 to 99
COc1cccc(C(=O)NC23CC4CC(CC(NC(=O)c5cncc(C)n5)(C4)C2)C3)n1 [Example 151, 6-Methyl-pyrazine-2-carboxylic acid {3-[(6-methoxy-pyridine-2-carbonyl)-amino]-adamantan-1-yl}-amide]	70 to 99
Cc1cncc(C(=O)NC23CC4CC(C2)CC(NC(=O)c2cccc(Cl)c2F)(C4)C3)n1 [Example 152, 6-Methyl-pyrazine-2-carboxylic acid [3-(3-chloro-2-fluoro-benzoylamino)-adamantan-1-yl]-amide]	70 to 99
COc1ccnc(C(=O)NC23CC4CC(C2)CC(NC(=O)c2cncc(C)n2)(C4)C3)c1 [Example 153, 6-Methyl-pyrazine-2-carboxylic acid {3-[(4-methoxy-pyridine-2-carbonyl)-amino]-adamantan-1-yl}-amide]	70 to 99
COc1cc(C(=O)NC23CC4CC(C2)CC(NC(=O)c2cncc(C)n2)(C4)C3)ccn1 [Example 154, 6-Methyl-pyrazine-2-carboxylic acid {3-[(2-methoxy-pyridine-4-carbonyl)-amino]-adamantan-1-yl}-amide]	70 to 99
CCOc1cc(C(=O)NC23CC4CC(C2)CC(NC(=O)c2cncc(C)n2)(C4)C3)ccn1 [Example 155, 6-Methyl-pyrazine-2-carboxylic acid {3-[(2-ethoxy-pyridine-4-carbonyl)-amino]-adamantan-1-yl}-amide]	70 to 99
Cc1cc(C(=O)NC23CC4CC(C2)CC(NC(=O)c2cncc(C)n2)(C4)C3)ccn1 [Example 156, 6-Methyl-pyrazine-2-carboxylic acid {3-[(2-methyl-pyridine-4-carbonyl)-amino]-adamantan-1-yl}-amide]	70 to 99
Cc1cncc(C(=O)NC23CC4CC(C2)CC(NC(=O)c2csc(C)n2)(C4)C3)n1 [Example 157, 6-Methyl-pyrazine-2-carboxylic acid {3-[(2-methyl-thiazole-4-carbonyl)-amino]-adamantan-1-yl}-amide]	70 to 99
Cc1cc(F)cc(C(=O)NC23CC4CC(C2)CC(NC(=O)c2cncc(C)n2)(C4)C3)c1 [Example 158, 6-Methyl-pyrazine-2-carboxylic acid [3-(3-fluoro-5-methyl-benzoylamino)-adamantan-1-yl]-amide]	70 to 99

Continued, values first:

Emax [%]	SMILES
70 to 99	COc1cc(C(=O)NC23CC4CC(C2)CC(NC(=O)c2cncc(C)n2)(C4)C3)ccc1F [Example 159, 6-Methyl-pyrazine-2-carboxylic acid [3-(4-fluoro-3-methoxy-benzoylamino)-adamantan-1-yl]-amide]
70 to 99	Cc1cncc(C(=O)NC23CC4CC(CC(NC(=O)c5ccnc(F)c5)(C4)C2)C3)n1 [Example 160, 6-Methyl-pyrazine-2-carboxylic acid {3-[(2-fluoro-pyridine-4-carbonyl)-amino]-adamantan-1-yl}-amide]
70 to 99	Cc1cncc(C(=O)NC23CC4CC(C2)CC(NC(=O)c2cc(Cl)ccc2F)(C4)C3)n1 [Example 161, 6-Methyl-pyrazine-2-carboxylic acid [3-(5-chloro-2-fluoro-benzoylamino)-adamantan-1-yl]-amide]
70 to 99	Cc1cncc(C(=O)NC23CC4CC(CC(NC(=O)c5cccc(OC(F)F)c5)(C4)C2)C3)n1 [Example 162, 6-Methyl-pyrazine-2-carboxylic acid [3-(3-difluoro-methoxy-benzoylamino)-adamantan-1-yl]-amide]
70 to 99	Cc1cncc(C(=O)NC23CC4CC(CC(NC(=O)c5cc(F)cc(Cl)c5)(C4)C2)C3)n1 [Example 163, 6-Methyl-pyrazine-2-carboxylic acid [3-(3-chloro-5-fluoro-benzoylamino)-adamantan-1-yl]-amide]
63 to 99	Cc1cncc(C(=O)NC23CC4CC(C2)CC(NC(=O)c2cccc(F)n2)(C4)C3)n1 [Example 164, 6-Methyl-pyrazine-2-carboxylic acid {3-[(6-fluoro-pyridine-2-carbonyl)-amino]-adamantan-1-yl}-amide]
63 to 99	Cc1cncc(C(=O)NC23CC4CC(C2)CC(NC(=O)c2cncc(C)n2)(C4)C3)c1 [Example 165, 6-Methyl-pyrazine-2-carboxylic acid {3-[(5-methyl-pyridine-3-carbonyl)-amino]-adamantan-1-yl}-amide]
63 to 99	Cc1cncc(C(=O)NC23CC4CC(CC(NC(=O)c5ccc(F)c(C)c5)(C4)C2)C3)n1 [Example 166, 6-Methyl-pyrazine-2-carboxylic acid [3-(4-fluoro-3-methyl-benzoylamino)-adamantan-1-yl]-amide]
63 to 99	COc1cccc(C(=O)NC23CC4CC(CC(NC(=O)c5cncc(C)n5)(C4)C2)C3)c1F [Example 167, 6-Methyl-pyrazine-2-carboxylic acid [3-(2-fluoro-3-methoxy-benzoylamino)-adamantan-1-yl]-amide]
63 to 99	Cc1cncc(C(=O)NC23CC4CC(C2)CC(NC(=O)c2ncccc2C)(C4)C3)n1 [Example 168, 6-Methyl-pyrazine-2-carboxylic acid {3-[(3-methyl-pyridine-2-carbonyl)-amino]-adamantan-1-yl}-amide]
63 to 99	Cc1cncc(C(=O)NC23CC4CC(C2)CC(NC(=O)c2cc(C(F)(F)F)ccc2F)(C4)C3)n1 [Example 169, 6-Methyl-pyrazine-2-carboxylic acid [3-(2-fluoro-5-trifluoromethyl-benzoylamino)-adamantan-1-yl]-amide]
63 to 99	Cc1cncc(C(=O)NC23CC4CC(CC(NC(=O)c5cncc(Cl)c5)(C4)C2)C3)n1 [Example 170, 6-Methyl-pyrazine-2-carboxylic acid {3-[(5-chloro-pyridine-3-carbonyl)-amino]-adamantan-1-yl}-amide]
63 to 99	Cc1cncc(C(=O)NC23CC4CC(CC(NC(=O)c5cc(F)ccn5)(C4)C2)C3)n1 [Example 171, 6-Methyl-pyrazine-2-carboxylic acid {3-[(4-fluoro-pyridine-2-carbonyl)-amino]-adamantan-1-yl}-amide]
